From patent US10905123B2, “Herbicidal compounds” (Syngenta Participations AG, priority 2015, dated 2021)

How the values were obtained:
Assay type in all cases: in vivo
Details in all cases: Rate 1000 g/ha; evaluated after 13 days
Zea mays (ZEAMX) [1] = experiment: B2a post-emergence herbicidal activity
Description: (§1) Seeds of a variety of test species were sown in standard soil in pots: Amaranthus retroflexus (AMARE), Setaria faberi (SETFA), Zea mays (ZEAMX), Abutilon threophrasti (ABUTH), Echinochloa crus-galli (ECHCG), Lolium perenne (LOLPE). After 8 days cultivation (post-emergence) under controlled conditions in a glasshouse (at 24/16° C., day/night; 14 hours light; 65% humidity), the plants were sprayed with an aqueous spray solution derived from the formulation of the technical active ingredient in acetone/I water (50:50) solution containing 0.5% Tween 20 (polyoxyethelyene sorbitan monolaurate, CAS RN 9005-64-5). The test plants were then grown in a glasshouse under controlled conditions (at 24/16° C., day/night; 14 hours light; 65% humidity) and watered twice daily. After 13 days, the test was evaluated (5=total damage to plant; 0=no damage to plant).

[2] = tested on: Echinochloa crus-galli (ECHCG); experiment: B2a post-emergence herbicidal activity
Description: as §1

Lolium perenne (LOLPE) [3] = experiment: B2a post-emergence herbicidal activity
Description: as §1

[4] = tested on: Amaranthus retroflexus (AMARE); experiment: B2a post-emergence herbicidal activity
Description: as §1

[5] = tested on: Abutilon threophrasti (ABUTH); experiment: B2a post-emergence herbicidal activity
Description: as §1

Setaria faberi (SETFA) [6] = experiment: B2a post-emergence herbicidal activity
Description: as §1

Zea mays (ZEAMX) [7] = experiment: B1a pre-emergence herbicidal activity
Description: as §1, with “After” for “After 8 days”, “for one day (pre-emergence)” for “(post-emergence)”, “acetone/water” for “acetone/I water”, “plant). Results are shown below in Table 4” for “plant).”

[8] = tested on: Echinochloa crus-galli (ECHCG); experiment: B1a pre-emergence herbicidal activity
Description: as §1, with “After” for “After 8 days”, “for one day (pre-emergence)” for “(post-emergence)”, “acetone/water” for “acetone/I water”, “plant). Results are shown below in Table 4” for “plant).”

Lolium perenne (LOLPE) [9] = experiment: B1a pre-emergence herbicidal activity
Description: as §1, with “After” for “After 8 days”, “for one day (pre-emergence)” for “(post-emergence)”, “acetone/water” for “acetone/I water”, “plant). Results are shown below in Table 4” for “plant).”

[10] = tested on: Amaranthus retroflexus (AMARE); experiment: B1a pre-emergence herbicidal activity
Description: as §1, with “After” for “After 8 days”, “for one day (pre-emergence)” for “(post-emergence)”, “acetone/water” for “acetone/I water”, “plant). Results are shown below in Table 4” for “plant).”

[11] = tested on: Abutilon threophrasti (ABUTH); experiment: B1a pre-emergence herbicidal activity
Description: as §1, with “After” for “After 8 days”, “for one day (pre-emergence)” for “(post-emergence)”, “acetone/water” for “acetone/I water”, “plant). Results are shown below in Table 4” for “plant).”

Setaria faberi (SETFA) [12] = experiment: B1a pre-emergence herbicidal activity
Description: as §1, with “After” for “After 8 days”, “for one day (pre-emergence)” for “(post-emergence)”, “acetone/water” for “acetone/I water”, “plant). Results are shown below in Table 4” for “plant).”

Compound	Control of ZEAMX after post-emergence application (damage score 0-5) (Zea mays (ZEAMX) [1])	Control of ECHCG after post-emergence application (damage score 0-5) [2]	Control of LOLPE after post-emergence application (damage score 0-5) (Lolium perenne (LOLPE) [3])	Control of AMARE after post-emergence application (damage score 0-5) [4]	Control of ABUTH after post-emergence application (damage score 0-5) [5]	Control of SETFA after post-emergence application (damage score 0-5) (Setaria faberi (SETFA) [6])	Control of ZEAMX after pre-emergence application (damage score 0-5) (Zea mays (ZEAMX) [7])	Control of ECHCG after pre-emergence application (damage score 0-5) [8]	Control of LOLPE after pre-emergence application (damage score 0-5) (Lolium perenne (LOLPE) [9])	Control of AMARE after pre-emergence application (damage score 0-5) [10]	Control of ABUTH after pre-emergence application (damage score 0-5) [11]	Control of SETFA after pre-emergence application (damage score 0-5) (Setaria faberi (SETFA) [12])
CC(C)(C)OC(=O)Nc1cn(-c2cccnc2)nc1Cl [Compound A57]	2	2	1	1	1	3	1	0	0	0	0	0
CC(C)OC(=O)Nc1cc(-c2cncnc2)nn1C(F)F [Compound A58, isopropyl N-[2-(difluoromethyl)-5-pyrimidin-5-yl-pyrazol-3-yl]carbamate]	1	1	1	0	0	3	0	1	0	0	0	2
CC(C)OC(=O)N(C)c1cc(-c2cncnc2)nn1C(F)F [Compound A59, isopropyl N-[2-(difluoromethyl)-5-pyrimidin-5-yl-pyrazol-3-yl]-N-methyl-carbamate]	2	1	0	0	0	3	2	2	0	0	0	3
CN(C(=O)OC(C)(C)C)c1cn(-c2cccnc2)nc1Cl [Compound A60, tert-butyl N-[3-chloro-1-(3-pyridyl)pyrazol-4-yl]-N-methyl-carbamate]	3	4	2	3	2	4	2	2	0	1	0	4
